pIC50: −log10 of the molar value. “Also recorded” adds a separate entry of the source. Read-outs that look alike come from different tables or passages of the source. One block for each molecule: values may come before it.
How the values were obtained:
IL-8-induced chemotaxis = conditions: cited from earlier work
oral bioavailability = conditions: in vivo
[1] = in vivo; cited from earlier work
MEK1/2 = test: kinase assays of MEK1/2 activity in response to IL-8; format: cell-based, human; conditions: pre-treatment with inhibitor
Protocol: (§1) The role of PI3K in IL-8 activation of ERK has been controversial. […] In parallel, kinase assays were performed to examine the MEK1/2 activity in response to IL-8.

colon cancer cells = conditions: read-out: IC50, decrease of endogenous constitutive MAPK activation or growth in soft agar; cited from earlier work
IL-8 activation of ERK = IL-8 activation of ERK in human PMNs, Western blot with phospho-specific ERK antibody; format: cell-based; conditions: for inhibition of IL-8 activation of ERK at 0.1 μM: 0.1 μM inhibitor
Protocol: Activation of MAPK was examined by phospho-specific ERK antibody in isolated human PMNs that were stimulated with 3 nM of IL-8 for various periods of time (A). […] The effect of the inhibitors was monitored by measuring p-ERK activity by Western blotting. The blots were normalized using the ERK antibody.
(§2) Polymorphonuclear leukocytes (PMNs) were isolated from whole blood obtained from healthy human donors. Plasma was separated from the remainder of the blood using a Dextran density gradient. Red blood cells (RBCs) and PMNs were further isolated by centrifugation at 2500 rpm for 15 minutes, using a Lymphoprep sedimentation solution. RBCs were lysed with 0.2% NaCl, neutralized with 1.8% NaCl, and the remaining neutrophils were resuspended in RPMI binding buffer at a final concentration of 10 million cells/mL.
Neutrophils were preincubated with the respective inhibitor for 30 minutes at room temperature in 1.5-mL microfuge tubes prior to addition of IL-8 (3.125 nM). […] Thus, neutrophils were exposed to IL-8 for 5 minutes at room temperature, after which whole cell lysates were obtained via lysis with RIPA buffer and analyzed by Western blot analysis using phospho specific antibodies, p44/42 MAP (ERK) and p38 MAPK kinase. Standard Western blotting was performed using chemiluminescence. All blots were normalized with the respective nonphosphorylated antibodies.
To confirm IL-8 activation of ERK, neutrophils were stimulated with 3 nM of IL-8 for various periods of time, ranging from 0 to 30 minutes (FIG. 1A).
as §1

[2] = test system: IL-8-stimulated neutrophil chemotaxis; test: In vitro neutrophil chemotaxis, IL-8, transwell chamber assay; format: cell-based, human; conditions: for inhibition at 0.01 µM: read-out: inhibition of chemotaxis at 0.01 μM, 0.01 μM inhibitor alone; for pIC50: 3.125 nM IL-8, 3 hours
Protocol: Subsequently, the cells were stimulated with 3.125 nM of IL-8 for a period of 3 hours at which time the migrated cells were quantified using a cell sorter as described elsewhere. Percent inhibition was calculated based on the differences in the number of migrated cells compared to IL-8 alone controls.
The migrated cells were quantitated as described, and the percent inhibition was represented.
Number of cells migrated was measured 3 hours after IL-8 stimulation and expressed as percent control. Each value represents the average ±S.E. obtained from at least three different donors with duplicates in each set.
as §2
The neutrophil chemotaxis assay was conducted with 1 million cells per well in […] polycarbonate membrane transwell plates (Corning-Costar, Cambridge, Mass.). The various inhibitors were prepared as 1 or 10 mM stock solutions in dimethyl sulphoxide (DMSO). Inhibitor dilutions were prepared in RPMI binding buffer, maintaining a constant final concentration of DMSO in all conditions. Neutrophils were preincubated with the respective inhibitor in the top well of the plate for 30 minutes at room temperature prior to exposure to IL-8. An equivalent concentration of the respective inhibitor was placed in the bottom well to prevent any concentration gradient. DMSO concentration was maintained in all wells as a vehicle control. […] Neutrophils that migrated completely across the 3-μM filter were quantitated using FACS analysis with appropriate forward and sideward scatter. Percentage inhibition relative to the positive control (IL-8 alone) was calculated for each condition after subtracting the blank reading (no IL-8).

[3] = test system: IL-8-induced neutrophil recruitment to the skin; test: IL-8 skin recruitment model (in vivo rabbit neutrophil recruitment assay)
Protocol: Three hours after the last dose, animals were injected with ^125I IL-8 (10μCi), and 10 minutes later various doses of cold (unlabeled) IL-8 was injected intradermally at local sites on the back of the rabbits. Sixty minutes later, the animals were sacrificed, punch biopsies were performed, and the radiation in the skin was measured using a gamma counter. Each value represents the average±standard deviation error of three representative experiments with three animals in each group and triplicates within each treatment. The asterisk indicates significant (p<0.05) differences between the respective treatments in control animals versus drug-administered animals. […]
In control rabbits, the vehicle was administered. […] The biopsies were weighed and sample-associated radioactivity was determined using a gamma counter (Packard Model #05005, Downers Grove, Ill.).
In each experiment, triplicate samples were obtained for each experimental condition. In studies where IL-8 was not tested or the highest 1-μg dose of IL-8 was not used, the data is expressed as either raw counts or adjusted counts. […] In dose-response studies where the 1-μg dose of IL-8 was used, the weight-normalization background (vehicle-treated skin) was subtracted from weight-normalized treated samples, and the data was then expressed as a percent maximal response to the 1-μg dose of IL-8. […]

PMNs = test: cytotoxicity on the PMNs; conditions: higher concentrations of the drug

oral bioavailability (oral bioavailability): orally nonbioavailable
Compound: COc1cccc(-c2cc(=O)c3ccccc3o2)c1N [2-(2-amino-3-methoxy-phenyl)-chromen-4-one]
inhibition of IL-8-induced chemotaxis in previous studies (IL-8-induced chemotaxis): lack of inhibition

inhibition of IL-8 activation of MEK1/2 (MEK1/2): inhibited | pIC50 ([2]; Homo sapiens, Neutrophil): 6.85
Compound: O=C(NOCC1CC1)c1ccc(F)c(F)c1Nc1ccc(I)cc1Cl [2-(2-chloro-4-iodo-phenylamino)-N-cyclopropylmethoxy-3,4-difluoro-benzamide]
bioavailability, as recently described [1]: bioavailable | pIC50 (colon cancer cells): 6.82 | effect on IL-8-induced ERK activation at 0.01 μM (IL-8 activation of ERK; 0.01 μM inhibitor): blocks ERK activation completely | inhibition of IL-8 activation of ERK at 0.1 μM (IL-8 activation of ERK): almost completely blocks; also recorded: completely inhibited | inhibition of IL-8 activation of ERK at 0.1 μM (IL-8 activation of ERK; listed as 2-(2-Chloro-4-iodo-phenylamino)-N-cyclopropylmethoxy-3,4-difluoro-benzamide): almost completely blocked | inhibition of IL-8 activation of ERK (IL-8 activation of ERK; inhibitor 0 to 100 μM for 30 minutes, then IL-8 for 5 minutes): dose dependent inhibition; also recorded: clearly blocked | inhibition of chemotaxis at 0.001 μM ([2]; 0.001 μM inhibitor, 3.125 nM IL-8): minimal inhibition | inhibition at 0.1 µM ([2]; Homo sapiens, Neutrophil, read-out: inhibition of chemotaxis at 0.1 nM IL-8, 0.1 μM inhibitor, 0.1 nM IL-8): ~80% | inhibition at 0.01 µM ([2]; Homo sapiens, Neutrophil): ~50% | inhibition at 0.1 µM ([2]; Homo sapiens, Neutrophil, read-out: inhibition of chemotaxis at 100 nM IL-8, 0.1 μM inhibitor, 100 nM IL-8): ~30% | maximal inhibition of IL-8-induced chemotaxis, compound alone ([2]; maximal block, single agent): 60% | decrease of IL-8-induced neutrophil recruitment in vivo ([3]; 30 mg/kg PO three times at 8 hour intervals, higher IL-8 concentrations tested): ~50% | number of neutrophils recruited to the skin ([3]; 30 mg/kg PO three times, all IL-8 concentrations tested): consistently decreased

Compound: COC[C@H]1OC(=O)c2coc3c2[C@@]1(C)C1=C(C3=O)[C@@H]2CCC(=O)[C@@]2(C)C[C@H]1OC(C)=O [Wortmannin, reference compound]
cytotoxicity effects on the PMNs (PMNs): No visible cytotoxicity effects | inhibition of chemotaxis at 0.01 μM ([2]; 0.01 μM inhibitor alone, 0.01 µM): 28% | inhibition at 0.001 µM ([2]; Homo sapiens, Neutrophil, read-out: inhibition of chemotaxis at 0.001 μM, 0.001 μM inhibitor, 3.125 nM IL-8): 25 to 30% | inhibition at 0.01 µM ([2]; Homo sapiens, Neutrophil): ~30% | inhibition at 1 µM ([2]; Homo sapiens, Neutrophil, read-out: inhibition of chemotaxis at 1 μM, 1 μM inhibitor, 3.125 nM IL-8): 100% | pIC50 ([2]; Homo sapiens, Neutrophil): 7.70
